Test results published in PubChem BioAssay AID651642 (Sanford-Burnham Center for Chemical Genomics, 2012).

Legend:
HL-1 = test: cardiomyocyte survival under oxidative or metabolic stress – cell-based, panel, H9c2 and HL-1, H2O2, 2-deoxyglucose, ATP luminescence, SAR follow-up (AID 651642)
H9c2 = test: as above
[1] = H9c2/HL-1 cardiomyocyte 2-deoxyglucose damage, mean of runs, with 2-deoxyglucose, mean IC50 across panel
[2] = H9c2/HL-1 cardiomyocyte 2-deoxyglucose damage, run 1, with 2-deoxyglucose
[3] = H9c2/HL-1 cardiomyocyte 2-deoxyglucose damage, run 2, with 2-deoxyglucose
[4] = H9c2/HL-1 cardiomyocyte 2-deoxyglucose damage, run 3, with 2-deoxyglucose
[5] = H9c2/HL-1 cardiomyocyte 2-deoxyglucose damage, run 4, with 2-deoxyglucose
[6] = H9c2/HL-1 cardiomyocyte H2O2 oxidative damage, run 1, with H2O2
[7] = H9c2/HL-1 cardiomyocyte H2O2 oxidative damage, run 2, with H2O2
[8] = H9c2/HL-1 cardiomyocyte H2O2 oxidative damage, run 3, with H2O2
[9] = H9c2/HL-1 cardiomyocyte H2O2 oxidative damage, run 4, with H2O2
[10] = H9c2/HL-1 cardiomyocyte H2O2 oxidative damage, mean of runs, with H2O2, mean IC50 across panel

| SMILES | IC50 (HL-1; [1]) [µM] | IC50 (HL-1; [2]) [µM] | IC50 (HL-1; [3]) [µM] | IC50 (HL-1; [4]) [µM] | IC50 (HL-1; [5]) [µM] | IC50 (HL-1; [6]) [µM] | IC50 (HL-1; [7]) [µM] | IC50 (HL-1; [8]) [µM] | IC50 (HL-1; [9]) [µM] | IC50 (H9c2; [1]) [µM] | IC50 (H9c2; [2]) [µM] | IC50 (H9c2; [3]) [µM] | IC50 (H9c2; [4]) [µM] | IC50 (H9c2; [5]) [µM] | IC50 (H9c2; [10]) [µM] | IC50 (H9c2; [6]) [µM] | IC50 (H9c2; [7]) [µM] | IC50 (H9c2; [8]) [µM] | IC50 (H9c2; [9]) [µM] | IC50 (HL-1; [10]) [µM] |
| --- | --- | --- | --- | --- | --- | --- | --- | --- | --- | --- | --- | --- | --- | --- | --- | --- | --- | --- | --- | --- |
| COc1cc(-c2cc(C(=O)Nc3cccc(C(C)=O)c3)c3cccc(Cl)c3n2)cc(OC)c1OC | > 79 | > 79 | > 79 | > 79 | > 79 | > 79 | > 79 | 2 | 2.5 | > 79 | > 79 | > 79 | > 79 | > 79 | > 79 | > 79 | > 79 | > 79 | > 79 | – |
| CCOC(=O)c1cccc(NC(=O)c2cc(-c3cc(OC)c(OC)c(OC)c3)nc3ccc(F)cc23)c1 | – | 3.32 | 4.09 | > 79 | > 79 | 2.77 | 7.9 | 2.4 | 3.37 | > 79 | > 79 | > 79 | > 79 | > 79 | – | 9 | 10.7 | > 79 | 3.82 | 4.11 |
| COc1cc(-c2cc(C(=O)NCC(=O)O)c3ccccc3n2)cc(OC)c1OC | > 79 | > 79 | > 79 | > 79 | > 79 | > 79 | > 79 | > 79 | > 79 | > 79 | > 79 | > 79 | > 79 | > 79 | – | > 79 | > 79 | > 79 | > 79 | > 79 |
| COc1ccc2c(c1OC)C(=O)N1c3ccccc3C(=O)N(Cc3cccc(Cl)c3Cl)C21 (configuration not stated) | 1.48 | 0.792 | 0.807 | 1.98 | 2.35 | > 79 | > 79 | > 79 | > 79 | 8.9 | 9.42 | 12.2 | 6.65 | 7.38 | – | 0.447 | 0.739 | > 79 | > 79 | > 79 |
| COc1cc(-c2cc(C(=O)NCC(=O)Nc3cccc(C(C)=O)c3)c3cccc(Cl)c3n2)cc(OC)c1OC | 6.58 | 5.45 | 9.03 | 5.38 | 6.47 | > 79 | > 79 | 4.06 | 6.82 | – | > 79 | 32.2 | 7.32 | 8.12 | 0.651 | 2.72 | 3.44 | 2.56 | 3.46 | – |
| COc1ccc2c(c1OC)C(=O)N1c3ccccc3C(=O)N(Cc3ccccc3)C21 (configuration not stated) | 10.2 | 3.57 | 4.36 | 13.8 | 18.9 | > 79 | > 79 | > 79 | > 79 | – | 44.9 | 49.1 | > 79 | > 79 | – | 3.56 | 4.07 | > 79 | > 79 | > 79 |
| COc1ccc2c(c1OC)C(=O)N1c3ccccc3C(=O)N(Cc3c(Cl)cccc3Cl)C21 (configuration not stated) | – | 6.31 | 6.5 | > 79 | > 79 | > 79 | > 79 | > 79 | > 79 | > 79 | > 79 | > 79 | > 79 | > 79 | – | 3.42 | 3.73 | > 79 | > 79 | > 79 |
| CCOC(=O)c1cccc(NC(=O)CNC(=O)c2cc(-c3cc(OC)c(OC)c(OC)c3)nc3c(Cl)cccc23)c1 | – | 3.56 | 5.79 | > 79 | > 79 | > 79 | > 79 | 4.99 | 15.4 | > 79 | > 79 | > 79 | > 79 | > 79 | – | 5.52 | 8.8 | > 79 | 3.36 | – |
| COc1ccc2nc(-c3cc(OC)c(OC)c(OC)c3)cc(C(=O)Nc3cccc(C(C)=O)c3)c2c1 | – | 6.04 | 6.84 | > 79 | > 79 | > 79 | > 79 | 3.8 | 8.57 | – | > 79 | 27.9 | > 79 | > 79 | – | 5.31 | 8.25 | > 79 | 2.94 | – |
